Structures can show the parent of a compound that is named as a salt.
Molecular target: T1, ACAT (Oryctolagus cuniculus, UniProt G1SFD9)
T1 construct: A microsome fraction of a rabbit small intestine prepared in a usual manner; from tissue; host or cells: rabbit small intestine, microsome fraction
T1 sequence (G1SFD9 1-524): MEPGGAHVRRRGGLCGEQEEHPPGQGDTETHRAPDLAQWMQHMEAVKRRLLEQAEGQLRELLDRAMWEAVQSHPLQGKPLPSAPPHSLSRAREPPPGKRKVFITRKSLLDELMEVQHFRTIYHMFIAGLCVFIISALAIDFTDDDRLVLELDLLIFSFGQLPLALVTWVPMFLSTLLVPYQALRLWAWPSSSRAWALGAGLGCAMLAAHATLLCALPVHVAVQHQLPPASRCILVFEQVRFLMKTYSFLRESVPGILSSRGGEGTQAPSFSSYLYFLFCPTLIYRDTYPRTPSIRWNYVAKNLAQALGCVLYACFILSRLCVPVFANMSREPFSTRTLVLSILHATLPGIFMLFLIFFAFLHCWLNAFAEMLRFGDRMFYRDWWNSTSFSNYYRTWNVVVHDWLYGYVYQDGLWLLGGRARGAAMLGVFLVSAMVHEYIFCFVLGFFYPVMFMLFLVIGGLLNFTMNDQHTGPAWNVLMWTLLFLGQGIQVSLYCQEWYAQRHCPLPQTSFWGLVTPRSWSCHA
Test: Test of ACAT Inhibitory Activity (rabbit small intestinal microsome fraction)
Type: biochemical
Details: rabbit small intestinal microsomes, [1-14C]oleyl coenzyme, pH 7.4, 37° C., 6 minutes
Procedure: Test of ACAT Inhibitory Activity
The test was carried out in accordance with the method described in J. Lipid Res., Vol. 22, p.
A microsome fraction of a rabbit small intestine prepared in a usual manner was suspended in a 0.04N potassium phosphate buffer solution (pH 7.4) containing 0.1N sucrose, 0.03N ethylenediaminetetraacetic acid (EDTA), and 0.05N potassium chloride. Each drug to be tested was dissolved in dimethyl sulfoxide.
The rabbit small intestinal microsome fraction suspension prepared above (250 μg as protein) and [1-^14 C]oleyl coenzyme were added to a 0.05N phosphate buffer solution (pH 7.4) containing 1% bovine serum albumin, followed by addition of a drug to be tested in a varied concentration. The total volume of the mixture was adjusted to 500 μl to prepare a sample. For control, a sample was prepared in the same manner, except for adding no test drug. The sample was incubated at 37° C. for 6 minutes, and the reaction was terminated by addition of a mixture of chloroform and methanol (mixing ratio=2:1). After stirring, the chloroform layer was collected and concentrated to dryness. […] A gel portion corresponding to cholesterol oleate was scraped, and its radioactivity was measured with a liquid scintillation counter (LSC-3000, manufactured by Aloka Co., Ltd.). Percent inhibition on ACAT activity was calculated using the following equation to obtain an IC50 value. [formula]

Compound | IC50 [nM]
CC(C)c1cccc(C(C)C)c1NC(=O)CSCCCCCCN1CCN(c2ccccc2)CC1 [Compound 1, N-(2,6-Diisopropylphenyl)-2-[6-(4-phenylpiperazinyl)hexylthio]acetamide] | 10 to 100
COc1ccccc1N1CCN(CCCCCCSCC(=O)Nc2c(C(C)C)cccc2C(C)C)CC1 [Compound 2, N-(2,6-Diisopropylphenyl)-2-{6-[4-(2-methoxyphenyl)piperazinyl]hexylthio}acetamide dihydrochloride] | 10 to 100
COc1ccc(N2CCN(CCCCCCSCC(=O)Nc3c(C(C)C)cccc3C(C)C)CC2)cc1 [Compound 3, N-(2,6-Diisopropylphenyl)-2-{6-[4-(4methoxyphenyl)piperazinyl]hexylthio}acetamide] | 10 to 100
CC(C)c1cccc(C(C)C)c1NC(=O)CSCCCCCCN1CCN(c2ccccc2Cl)CC1 [Compound 4, N-(2,6-Diisopropylphenyl)-2-{6-[4-(2-chlorophenyl)piperazinyl]hexylthio}acetamide] | 10 to 100
CC(C)c1cccc(C(C)C)c1NC(=O)CSCCCCCCN1CCN(c2ccccn2)CC1 [Compound 5, N-(2,6-Diisopropylphenyl)-2-{6-[4-(2pyridyl)piperazinyl]hexylthio}acetamide] | 10 to 100
CC(C)c1cccc(C(C)C)c1NC(=O)CSCCCCCCN1CCN(c2ncccn2)CC1 [Compound 6, N-(2,6-Diisopropylphenyl)-2-{6-[4-(2-pyrimidyl)piperazinyl]hexylthio}acetamide] | 10 to 100
CC(C)c1cccc(C(C)C)c1NC(=O)CSCCCCCCN1CCN(c2cccc(Cl)c2)CC1 [Compound 7, N-(2,6-Diisopropylphenyl)-2-{6-[4-(3-chlorophenyl)piperazinyl]hexylthio}acetamide] | 10 to 100
Cc1cccc(N2CCN(CCCCCCSCC(=O)Nc3c(C(C)C)cccc3C(C)C)CC2)c1 [Compound 8, N-(2,6-Diisopropylphenyl)-2-{6-[4-(3-methylphenyl)piperazinyl]hexylthio}acetamide] | 10 to 100
Cc1ccccc1N1CCN(CCCCCCSCC(=O)Nc2c(C(C)C)cccc2C(C)C)CC1 [Compound 9, N-(2,6-Diisopropylphenyl)-2-{6-[4-(2-methylphenyl)piperazinyl]hexylthio}acetamide fumarate] | 10 to 100
CC(C)c1cccc(C(C)C)c1NC(=O)CSCCCCCCN1CCN(c2cccc(C(F)(F)F)c2)CC1 [Compound 10, N-(2,6-Diisopropylphenyl)-2-{6-[4-(3-trifluoromethylphenyl)piperazinyl]hexylthio}acetamide] | 10 to 100
CC(C)c1cccc(C(C)C)c1NC(=O)CSCCCCCCN1CCN(c2ccc(F)cc2)CC1 [Compound 11, N-(2,6-Diisopropylphenyl)-2-{6-[4-(4-fluorophenyl)piperazinyl]hexylthio}acetamide] | 10 to 100
CC(C)c1cccc(C(C)C)c1NC(=O)CSCCCCCCN1CCN(c2ccccc2[N+](=O)[O-])CC1 [Compound 12, N-(2,6-Diisopropylphenyl)-2-{6-[4-(2-nitrophenyl)piperazinyl]hexylthio}acetamide] | 10 to 100
CC(C)c1cccc(C(C)C)c1NC(=O)CSCCCCCCN1CCN(c2cccc(C(F)(F)F)n2)CC1 [Compound 14, N-(2,6-Diisopropylphenyl)-2-{6-[4-(6-trifluoromethyl-2-pyridyl)piperazinyl]hexylthio}acetamide] | 10 to 100
CC(C)c1cccc(C(C)C)c1NC(=O)CSCCCCCCN1CCN(c2cc(Cl)ccn2)CC1 [Compound 15, N-(2,6-Diisopropylphenyl)-2-{6-[4-(4-chloro-2-pyridyl)piperazinyl]hexylthio}acetamide] | 10 to 100
CC(C)c1cccc(C(C)C)c1NC(=O)CSCCCCCCN1CCN(c2ccc(Cl)cc2)CC1 [Compound 16, N-(2,6-Diisopropylphenyl)-2-{6-[4-(4-chlorophenyl)piperazinyl]hexylthio}acetamide] | 10 to 100
CC(C)c1cccc(C(C)C)c1NC(=O)CSCCN1CCN(c2ccccc2)CC1 [Compound 17, N-(2,6-Diisopropylphenyl)-2-[2-(4-phenylpiperazinyl)ethylthio]acetamide dihydrochloride] | 10 to 100
CC(C)c1cccc(C(C)C)c1NC(=O)CSCCCN1CCN(c2ccccc2)CC1 [Compound 18, N-(2,6-Diisopropylphenyl)-2-[3-(4-phenylpiperazinyl)propylthio]acetamide dihydrochloride] | 10 to 100
CC(C)c1cccc(C(C)C)c1NC(=O)CSCCCCN1CCN(c2ccccc2)CC1 [Compound 19, N-(2,6-Diisopropylphenyl)-2-[4-(4-phenylpiperazinyl)butylthio]acetamide dihydrochloride] | 10 to 100
CC(C)c1cccc(C(C)C)c1NC(=O)CSCCCCCCCCN1CCN(c2ccccc2)CC1 [Compound 21, N-(2,6-Diisopropylphenyl)-2-[8-(4-phenylpiperazinyl)octylthio]acetamide] | 1 to 10
CC(C)c1cccc(C(C)C)c1NC(=O)CSCCCCCCCCCN1CCN(c2ccccc2)CC1 [Compound 22, N-(2,6-Diisopropylphenyl)-2-[9-(4-phenylpiperazinyl)nonylthio]acetamide] | 10 to 100
CC(C)c1cccc(C(C)C)c1NC(=O)CSCCCCCCCCCCN1CCN(c2ccccc2)CC1 [Compound 23, N-(2,6-Diisopropylphenyl)-2-[10-(4-phenylpiperazinyl)decylthio]acetamide] | 10 to 100
CC(C)c1cccc(C(C)C)c1NC(=O)CSCCCCCCCCCCCCN1CCN(c2ccccc2)CC1 [Compound 24, N-(2,6-Diisopropylphenyl)-2-[12-(4-phenylpiperazinyl)dodecylthio]acetamide] | 10 to 100
CC(C)c1cccc(C(C)C)c1NC(=O)CSCCCCCCCN1CCN(c2ccccc2)CC1 [Compound 25, N-(2,6-Diisopropylphenyl)-2-[7-(4-phenylpiperazinyl)heptylthio]acetamide] | 10 to 100

Test system: Normal Rat
Test: Test of Lipid Reduction in Normal Rat
Type: in vivo, rat (male Wister)
Details: compared with the control, oral 100 mg/kg for 3 days
Procedure: Test of Lipid Reduction in Normal Rat
Five 5-week-old male Wister rats per group were used as test animals. Each test drug was orally administered to the rat at a dose of 100 mg/kg for 3 days. A blood sample was taken from the rat having been deprive of food for 18 hours from the final administration, and the serum was separated. A total cholesterol value and a total triglyceride value were measured with an autoanalyzer (Hitachi 7150) in accordance with an enzyme method (Autosera, manufactured by Daiichi Kagaku K.K.). Lipoprotein was separated by a precipitation method (HDL-C.2, manufactured by Daiichi Kagaku K.K.), and the cholesterol in the lipoprotein was determined by an enzyme method. Five ml/kg of each test drug suspended in a 0.2% aqueous solution of sodium carboxymethyl cellulose was administered. For control, the same sodium carboxymethyl cellulose solution containing no test drug was administered.
Note: "Percent change" in Tables 2 and 3 is a rate of change in the respective cholesterol value compared with the control.

Compound | Cholesterol in High Density Lipoprotein, Percent Change [%] | Cholesterol in Low Density Lipoprotein, Percent Change [%] | Total Cholesterol in Serum, Percent Change [%] | Total Triglyceride in Serum, Percent Change [%]
CC(C)c1cccc(C(C)C)c1NC(=O)CSCCCCCCN1CCN(c2ccccc2)CC1 [Compound 1, N-(2,6-Diisopropylphenyl)-2-[6-(4-phenylpiperazinyl)hexylthio]acetamide] | 3.4 | -50.8 | -12.2 | -41.6
CCCCCCCCCCC(C)(C)C(=O)Nc1c(OC)cc(OC)cc1OC [Compound B, N-(2,4,6-Trimethoxyphenyl)-2,2-dimethyldodecylamide, reference compound] | 15.5 | 0.0 | 7.1 | 18.8

Same assay, conditions: oral 100 mg/kg for 3 days, fasted 18 hours

Compound | Cholesterol in High Density Lipoprotein, Measured Value [mg/dL] | Cholesterol in Low Density Lipoprotein, Measured Value [mg/dL] | Total Cholesterol in Serum, Measured Value [mg/dL] | Total Triglyceride in Serum, Measured Value [mg/dL]
CC(C)c1cccc(C(C)C)c1NC(=O)CSCCCCCCN1CCN(c2ccccc2)CC1 [Compound 1, N-(2,6-Diisopropylphenyl)-2-[6-(4-phenylpiperazinyl)hexylthio]acetamide] | 46.0 ± 1.7 | 5.8 ± 2.0 | 51.8 ± 3.2 | 51.6 ± 2.7
CCCCCCCCCCC(C)(C)C(=O)Nc1c(OC)cc(OC)cc1OC [Compound B, N-(2,4,6-Trimethoxyphenyl)-2,2-dimethyldodecylamide, reference compound] | 51.4 ± 2.2 | 11.8 ± 5.1 | 63.2 ± 3.1 | 108.0 ± 5.1

Source: US5416212A, “Anilide derivatives” (Taisho Pharmaceutical Co., Ltd., priority 1991, dated 1995)
